Results from patent US20030170297A1, “Lipid-based drug delivery systems containing phospholipase a2 degradable lipid derivatives for topical application to the skin” (priority 2000, published 2003).
Values joined by “and” are separate entries in the source; they are usually repeats but may differ in a detail not shown here. Equal values may be shown once.

Assays:
[1] = target: T1, Snake venom PLA2 (Agkistrodon piscivorus piscivorus) (Agkistrodon piscivorus piscivorus, UniProt P51972); assay: PLA2-controlled calcein release across non-hydrolysable D-O-SPC target membrane (micelle or liposome carriers); format: biochemical
T1 construct: This PLA2 enzyme belongs to the class of low-molecular weight 14 kD secretory enzymes; from tissue; host or cells: snake venom of Agkistrodon piscivorus piscivorus
T1 sequence (P51972 1-123): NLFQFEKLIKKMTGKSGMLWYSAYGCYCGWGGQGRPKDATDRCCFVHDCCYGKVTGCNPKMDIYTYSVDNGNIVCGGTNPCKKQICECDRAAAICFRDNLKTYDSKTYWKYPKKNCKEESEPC
Experimental: Multilamellar model membrane target liposomes were made in the presence of fluorescent calcein in a self-quenching concentration of 20 mM by hydrating a film of 1,2-O-dioctadecyl-sn-glycero-3-phosphatidylcholines (D-O-SPC) in a HEPES buffer solution at pH=7.5 for one hour at 10° C. above the phase transition temperature (Tm=55° C.). Unilamellar liposomes were made by extruding the multilamellar liposomes ten times through two stacked 100 nm polycarbonate filters. The unilamellar liposomes were rapidly cooled to a temperature below the transition temperature, and the calcein-containing liposomes were separated from free calcein using a chromatographic column packed with Sephadex G-50. […] (1-O-DPPE-PEG350), di-octadecanoyl-sn-glycero-3-phosphoethanolamine-N-[methoxy(polyethylene glycol)-750 (DSPE-PEG750). were prepared as described in example 6. Calcein release from the target liposomes is determined by measuring the fluorescent intensity at 520 nm after excitation at 492 nm.
The concentrations of D-O-SPC and polymer-lipid micelles were 25 μM. Snake venom PLA2 (Agkistrodon piscivorus piscivorus) was added (25 nM) to initiate the hydrolytic reaction leading to instant formation of the polymer-lyso-1-O-DPPE and the free fatty acid hydrolysis products. […] The percentage of calcein released is determined as described in example 3.
The experimental model system consists of a negatively charged liposome carrier and a model target membrane. The carrier is a 100 nm unilamellar liposome made of dipalmitoyl phosphatidylcholine lipids (DPPC) with small amounts (2.5 mol %) of negatively charged lipid of the type dipalmitoyl phosphatidylethanolamine (DPPE)—PEG2000. The target membrane is another liposome made of 1,2-O-dioctadecyl-sn-glycero-phosphatidylcholine (D-O-SPC) which is a phospholipid where the acyl linkages of the stearoyl chains are ether bonds. In contrast to DPPC, D-O-SPC is inert towards PLA2-catalysed hydrolysis thereby mimicking the stability of an intact target cell membrane toward degradation by its own enzymes. This experimental assay, which permits simultaneous as well as separate investigation of the effect of destabilisers at the carrier liposomes and the effect of enhancers at the target membrane, involves entrapment of a water-soluble fluorescent calcein model drug in a self-quenching concentration, in the interior of the non-hydrolysable target liposome, rather than in the carrier liposome. The enhanced level of extracellular PLA2 at the target membrane can then be simulated by adding extracellular PLA2 to initiate the hydrolytic reaction in a suspension of the carrier and target liposomes. The permeation of calcein across the D-O-SPC target membrane is subsequently monitored by the increase in fluorescence. In order to investigate the effect of the presence of small amounts of negatively charged lipids in the carrier liposome, a similar experiment was performed with conventional bare DPPC liposomes. Furthermore, in order to compare and discriminate the permeability enhancing effect of lyso-phospholipids from that of free fatty acids, experiments without enzymes were carried out where lyso-phospholipids and free fatty acids were added simultaneously or separately to the target liposomes.
DPPC, DCPC, D-O-SPC, and DPPE-PEG2000 were obtained from Avanti Polar Lipids. Purified snake venom PLA2 (Agkistrodon piscivorus piscivorus) was a generous gift from dr. R. L. Biltonen. This PLA2 enzyme belongs to the class of low-molecular weight, 14 kD secretory enzymes which display structural similarity to human extracellular phospholipase A2.

[2] = target: T2, phospholipase A2 (PLA2 from Agikistrodon piscivorus piscivorus) (Agkistrodon piscivorus piscivorus, UniProt P51972); assay: PLA2 reaction time profile, lag-time and HPLC percent hydrolysis of unilamellar liposomes; format: biochemical; conditions: FIG. 3, liposomes composed of 1-O-DPPC, after PLA2 addition
T2 construct: This PLA2 enzyme belongs to the class of low-molecular weight 14 kD secretory enzymes; from tissue; host or cells: snake venom of Agkistrodon piscivorus piscivorus
T2 sequence (P51972 1-123): T1 sequence (P51972 1-123)
Experimental: Phospholipase A2 reaction profile and lag time measurements Purified snake-venom phospholipase A2 (PLA2 from Agikistrodon piscivorus piscivorus) has been isolated according to the procedure of Maraganore et al., J. Biol. Chem. 259, 13839-13843. […] Assay conditions for the PLA2 reaction time profile shown in FIG. 2 and the lag-time and percent hydrolysis reported in Table 1 were: 0.15 mM unilamellar liposomes, 150 nM PLA2, 150 mM KCL, 10 mM HEPES (pH 7.5), 1 mM NaN3, 30 μM CaCl2, and 10 μM EDTA.
Lag-time and percent hydrolysed 1-O-DPPC at 41° C. as determined by HPLC. The lipid concentration was 0.150 mM in a 10 mM HEPES-buffer (pH=7.5).
The catalytic reaction was initiated by adding 8.9 μL of a 42 μM PLA2 (150 nM) stock solution to 2.5 ml of the thermostated liposome suspension (0.150 mM) equilibrated for 800 sec prior to addition of PLA2. The characteristic lag-burst behaviour of PLA2 towards the liposomes is signalled by a sudden increase in the intrinsic fluorescence from PLA2 at 340 nm after excitation at 285 nm followed by a concomitant decrease in the 90° light scattering from the lipid suspension (Hønger et al., Biochemistry 35, 9003-9006). […] The turnover of the PLA2 catalysed lipid hydrolysis of 1-O-DPPC to lyso-1-O-PPC was measured by HPLC (see Table 1). […]

[3] = Calcein release across target membrane on adding lyso-phospholipid and fatty acid in the absence of PLA2; conditions: absence of PLA2, 25 μM target membranes, 39° C., FIG. 12
Source text: The experimental model system consists of a negatively charged liposome carrier and a model target membrane. The carrier is a 100 nm unilamellar liposome made of dipalmitoyl phosphatidylcholine lipids (DPPC) with small amounts (2.5 mol %) of negatively charged lipid of the type dipalmitoyl phosphatidylethanolamine (DPPE)—PEG2000. The target membrane is another liposome made of 1,2-O-dioctadecyl-sn-glycero-phosphatidylcholine (D-O-SPC) which is a phospholipid where the acyl linkages of the stearoyl chains are ether bonds. In contrast to DPPC, D-O-SPC is inert towards PLA2-catalysed hydrolysis thereby mimicking the stability of an intact target cell membrane toward degradation by its own enzymes. […] The permeation of calcein across the D-O-SPC target membrane is subsequently monitored by the increase in fluorescence. […]
Multilamellar target liposomes in the presence of fluorescent calcein in a self-quenching concentration of 20 mM were made by hydrating a film of D-O-SPC in a HEPES buffer solution at pH=7.5 for one hour at 10° C. above the phase transition temperature Tm=55° C. […] Calcein release from the target liposomes is determined by measuring the fluorescent intensity at 520 nm after excitation at 492 nm. […]

[4] = target: T3, phospholipase A2 (A. piscivorus piscivorus) (Agkistrodon piscivorus piscivorus, UniProt P51972)
T3 sequence (P51972 1-123): T1 sequence (P51972 1-123)
Experimental: The hydrolysis of micelles composed DSPE-PEG750 was followed by analysis of the amount of stearic acid generated. The catalytic reaction was initiated by adding 8.9 μL of a 42 μM PLA2 (150 nM) stock solution to 2.5 ml a thermostated micelle suspension of DSPE-PEG750 (0.150 mM) equilibrated at 45° C. for 600 seconds prior to addition of PLA2. The characteristic burst behaviour of PLA2 towards the micelles is signalled by a sudden increase in the intrinsic fluorescence from PLA2 at 340 nm after excitation at 285 nm followed by a concomitant decrease in the 90° light scattering from the lipid suspension (Hønger et al., Biochemistry 35, 9003-9006). Samples for HPLC analysis of the amount of stearic acid generated were taken before adding PLA2 and 100 sec after the observed lag-time. […] HPLC analysis was made using a 5 μm diol column, a mobile phase composed of chloroform/methanol/water (730:230:30, v/v) and an evaporative light scattering detector (see example 2).

1—hexadecyl-2-hexadecanoyl-sn-glycero-3-phosphoethanolamine-N-[methoxy(poly-ethylene glycol)-2000] [DPPE-PEG2000]
rate of release of calcein across target membrane versus bare DPPC carriers ([1]; DPPC + 2.5 mol % DPPE-PEG2000 carriers, 37° C.): dramatically enhanced
change of lag time versus bare DPPC carriers ([1]; DPPC carrier liposomes with 2.5 mol % DPPE-PEG2000, 37° C.): dramatic decrease in the lag time

CCCCCCCCCCCCCCCCOC[C@H](COP(=O)([O-])OCC[N+](C)(C)C)OC(=O)CCCCCCCCCCCCCCC [1-O-DPPC]
amount of 1-O-DPPC after the lag-burst (HPLC; 100% before PLA2) [2]: 21%

CCCCCCCCCCCCCCCCCCOC[C@H](COP(=O)([O-])OCC[N+](C)(C)C)OCCCCCCCCCCCCCCCCCC [D-O-SPC, 1,2-O-dioctadecyl-sn-glycero-3-phosphatidylcholines]
behaviour towards PLA2-catalysed hydrolysis ([1]; target membrane lipid): inert

CCCCCCCCCC(=O)OC[C@H](COP(=O)([O-])OCC[N+](C)(C)C)OC(=O)CCCCCCCCC [DCPC, didecanoyl phosphatidylcholine]
calcein release across target membrane with short-chain phospholipid in carrier PEG-liposomes ([1]; small amount of DCPC in carrier PEG-liposomes, FIG. 11a): very fast

CC(C)CCC[C@@H](C)[C@H]1CC[C@H]2[C@@H]3CC=C4C[C@@H](O)CC[C@]4(C)[C@H]3CC[C@]12C [cholesterol]
effect on extracellular PLA2 activity ([1]; large amount (≈20 mol %) incorporated into liposomes, data not shown): deactivated
effect on extracellular PLA2 activity ([1]; small amount (≈3 mol %) in liposomes): activates

CCCCCCCCCCCCCCCC(=O)O [fatty acid, palmitic acid]
rate of calcein release across the target membrane, added separately [3]: increased rate of calcein release

di-octadecanoyl-sn-glycero-3-phosphoethanolamine-N-[methoxy(polyethylene glycol)-750 [DSPE-PEG750]
amount of stearic acid generated by hydrolysis ([4]; 0.150 mM DSPE-PEG750 micelles, 150 nM PLA2, 45° C.): 0.156 mM and 0.157 mM
hydrolysis of DSPE-PEG750 to lyso-DSPE-PEG750 and stearic acid ([4]; 0.150 mM micelles, 150 nM PLA2, 45° C., 100 sec after lag time): 100%
observed lag time ([4]; DSPE-PEG750 micelles 0.150 mM, 45° C.): 10 s
